Data published in paper PMC6264278, “Corydaline Inhibits Multiple Cytochrome P450 and UDP-Glucuronosyltransferase Enzyme Activities in Human Liver Microsomes” (Molecules, 2011).

Target: T1, UGT2B7 (Homo sapiens, UniProt P16662)
T1 construct: using pooled human liver microsomes; tissue BD Gentest Co. H161; host or cells: pooled human liver microsomes
T1 sequence (P16662 24-529): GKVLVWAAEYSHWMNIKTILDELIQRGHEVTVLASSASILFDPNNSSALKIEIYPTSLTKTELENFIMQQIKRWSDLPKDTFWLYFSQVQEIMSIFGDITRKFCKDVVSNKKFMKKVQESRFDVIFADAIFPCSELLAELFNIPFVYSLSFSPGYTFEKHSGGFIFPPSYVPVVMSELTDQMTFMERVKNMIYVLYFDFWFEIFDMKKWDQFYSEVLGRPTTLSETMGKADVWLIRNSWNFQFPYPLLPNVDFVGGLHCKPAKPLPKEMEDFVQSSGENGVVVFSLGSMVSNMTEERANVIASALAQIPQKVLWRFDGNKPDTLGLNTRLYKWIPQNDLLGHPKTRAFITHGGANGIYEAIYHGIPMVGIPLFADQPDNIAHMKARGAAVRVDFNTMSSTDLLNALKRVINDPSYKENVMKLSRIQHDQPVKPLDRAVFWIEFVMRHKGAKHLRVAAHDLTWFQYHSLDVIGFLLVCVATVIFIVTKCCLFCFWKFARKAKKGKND
Assay: UGT2B7 azidothymidine glucuronidation inhibition in pooled human liver microsomes
Type: in vitro ADME
Settings: pooled human liver microsomes (H161), 100 μM azidothymidine, no inhibition at 1,000 μM of corydaline
Description: The inhibitory potencies (IC50 values) of corydaline were also determined with UGT assays in the presence and absence of corydaline (final concentrations of 1–1,000 μM with acetonitrile concentration less than 0.5% v/v) using pooled human liver microsomes. 17β-Estradiol 3-glucuronidation, trifluoperazine glucuronidation, propofol glucuronidation, and azidothymidine glucuronidation activities were determined as probe activities for UGT1A1, UGT1A4, UGT1A9, and UGT2B7, respectively, using LC/MS/MS. Incubation mixtures were prepared in a total volume of 100 μL, as follows: Pooled human liver microsomes (0.2 mg/mL for 17β-estradiol, trifluoperazine and azidothymidine; 0.1 mg/mL for propofol), 2 mM UDPGA, 25 μg/mL alamethicin, 10 mM MgCl2, 50 mM tris buffer (pH 7.4), UGT-isoform specific probe substrate (20 μM 17β-estradiol for UGT1A1, 5 μM trifluoperazine for UGT1A4, 10 μM propofol for UGT1A9, or 100 μM azidothymidine for UGT2B7), and various concentrations of corydaline (1−1000 μM). […]
Glucuronides produced from UGT isoform-specific substrates were respectively determined by LC/MS/MS. […] Quantification was performed by SRM of the [M+H]^+ ion for trifluoperazine glucuronide and azidothymidine glucuronide or [M−H]^− for 17β-estradiol 3-glucuronide and propofol glucuronide and the related product ion for each metabolite. […]

COc1cc2c(cc1OC)C1C(C)c3ccc(OC)c(OC)c3CN1CC2 (centres unmarked) [Corydaline, 2,3,9,10-tetramethoxy-13-methyl-5,8,13,13a-tetrahydro-6H-isoquino[3,2-a]isoquinoline]
IC50, UGT2B7 azidothymidine glucuronidation: not inhibited
IC50, UGT2B7 azidothymidine glucuronidation (listed as corydaline): No inhibition *
